Consider 18 compounds from US8093279B2, “Compound” (priority 2005, dated 2012).

For one series, the target named is T1, steroid sulphatase (STS) (Homo sapiens, UniProt P08842).
T1 construct: host or cells: JEG3 choriocarcinoma cells (intact monolayers)
T1 sequence (P08842 22-583): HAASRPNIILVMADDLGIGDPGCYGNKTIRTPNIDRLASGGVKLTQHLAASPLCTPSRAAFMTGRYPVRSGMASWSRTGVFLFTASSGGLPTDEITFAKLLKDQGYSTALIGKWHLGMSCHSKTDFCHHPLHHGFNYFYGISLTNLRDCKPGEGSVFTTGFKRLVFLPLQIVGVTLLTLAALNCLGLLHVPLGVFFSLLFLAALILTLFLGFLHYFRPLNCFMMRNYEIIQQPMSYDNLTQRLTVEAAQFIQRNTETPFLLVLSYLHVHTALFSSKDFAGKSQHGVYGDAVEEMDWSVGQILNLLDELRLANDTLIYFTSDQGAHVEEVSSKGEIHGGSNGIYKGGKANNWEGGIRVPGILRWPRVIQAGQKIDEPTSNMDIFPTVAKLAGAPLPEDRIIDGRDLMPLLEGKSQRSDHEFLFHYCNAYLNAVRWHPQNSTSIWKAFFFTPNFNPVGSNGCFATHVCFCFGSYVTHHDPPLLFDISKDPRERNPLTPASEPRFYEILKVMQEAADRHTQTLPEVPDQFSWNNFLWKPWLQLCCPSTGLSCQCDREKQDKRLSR
The series is described as follows: Inhibition of steroid sulphatase activity in intact JEG3 cells (Protocol 1). To be noted: for IC50: JEG3 cells. It counts as cell-based. Here is the method:
Inhibition of Steroid Sulphatase Activity in JEG3 cells
Steroid sulphatase activity is measured in vitro using intact JEG3 choriocarcinoma cells. This cell line may be used to study the control of human breast cancer cell growth.
Cells are maintained in Minimal Essential Medium (MEM) (Flow Laboratories, Irvine, Scotland) containing 20 mM HEPES, 5% foetal bovine serum, 2 mM glutamine, non-essential amino acids and 0.075% sodium bicarbonate. Up to 30 replicate 25 cm^2 tissue culture flasks are seeded with approximately 1×10^5 cells/flask using the above medium. Cells are grown to 80% confluency and the medium is changed every third day.
Intact monolayers of JEG3 cells in triplicate 25 cm^2 tissue culture flasks are washed with Earle's Balanced Salt Solution (EBSS from ICN Flow, High Wycombe, U.K.) and incubated for 3-4 hours at 37° C. with 5 pmol (7×10^5 dpm) [6, 7-3H]oestrone-3-sulphate (specific activity 60 Ci/mmol from New England Nuclear, Boston, Mass., U.S.A.) in serum-free MEM (2.5 ml) together with oestrone-3-sulphamate (11 concentrations: 0; 1fM; 0.01 pM; 0.1 pM; 1 pM; 0.01 nM; 0.1 nM; 1 nM; […]). After incubation each flask is cooled and the medium (1 ml) is pipetted into separate tubes containing [14C]oestrone (7×10^3 dpm) (specific activity 97 Ci/mmol from Amersham International Radiochemical Centre, Amersham, U.K.). The mixture is shaken thoroughly for 30 seconds with toluene (5 ml). Experiments have shown that >90% [14C]oestrone and <0.1% [3H]oestrone-3-sulphate is removed from the aqueous phase by this treatment. A portion (2 ml) of the organic phase is removed, evaporated and the 3H and 14C content of the residue determined by scintillation spectrometry. The mass of oestrone-3-sulphate hydrolysed was calculated from the 3H counts obtained (corrected for the volumes of the medium and organic phase used, and for recovery of [14C]oestrone added) and the specific activity of the substrate. Each batch of experiments includes incubations of microsomes prepared from a sulphatase-positive human placenta (positive control) and flasks without cells (to assess apparent non-enzymatic hydrolysis of the substrate). The number of cell nuclei per flask is determined using a Coulter Counter after treating the cell monolayers with Zaponin. One flask in each batch is used to assess cell membrane status and viability using the Trypan Blue exclusion method (Phillips, H. J. (1973) In: Tissue culture and applications, [eds: Kruse, D. F. & Patterson, M. K.]; pp. 406-408; Academic Press, New York).
Results for steroid sulphatase activity are expressed as the mean±1 S.D. of the total product (oestrone+oestradiol) formed during the incubation period (3-4 hours) calculated for […] and, for values showing statistical significance, as a percentage reduction (inhibition) over incubations containing no oestrone-3-sulphamate. Unpaired Student's t-test was used to test the statistical significance of results.
(§1) A number of compounds were tested for aromatase and steroid sulphatase inhibition in accordance with the above Protocols 1 and 6.

The next series has as its target T2, Aromatase (Homo sapiens, UniProt P11511).
T2 construct: host or cells: JEG3 choriocarcinoma cells (intact monolayers)
T2 sequence (P11511 1-503): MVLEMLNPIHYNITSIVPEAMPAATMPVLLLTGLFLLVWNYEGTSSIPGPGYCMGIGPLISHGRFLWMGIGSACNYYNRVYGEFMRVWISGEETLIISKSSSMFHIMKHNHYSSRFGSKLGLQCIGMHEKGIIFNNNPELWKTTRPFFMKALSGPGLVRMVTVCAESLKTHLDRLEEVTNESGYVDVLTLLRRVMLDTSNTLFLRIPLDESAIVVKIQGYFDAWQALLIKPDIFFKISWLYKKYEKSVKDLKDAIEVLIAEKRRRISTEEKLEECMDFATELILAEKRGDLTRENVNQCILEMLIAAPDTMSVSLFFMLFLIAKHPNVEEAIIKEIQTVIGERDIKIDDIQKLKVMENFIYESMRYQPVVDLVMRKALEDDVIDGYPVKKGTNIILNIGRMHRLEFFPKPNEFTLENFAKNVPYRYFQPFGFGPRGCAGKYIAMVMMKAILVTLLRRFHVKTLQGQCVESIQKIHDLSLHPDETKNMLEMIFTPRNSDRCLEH
As to the kind of experiment: Aromatase activity in JEG3 choriocarcinoma cells (Protocol 6). The format is cell-based. To be noted: JEG3 cells. How it is done:
Aromatase activity is measured in JEG3 choriocarcinoma cells, obtained from the ATCC.
During the aromatase reaction, ^3H2O is liberated which can be quantified using a liquid scintillation spectrometer (Beckman-Coulter, High Wycombe, Bucks. UK). […] The number of cell nuclei per flask is determined using a Coulter Counter after treating the cell monolayers with Z aponin.
Unpaired Student's t test was used to test the statistical significance of results.
as §1

A further series has as its target T3, E1-STS (Homo sapiens, UniProt P08842).
T3 construct: host or cells: intact MCF-7 cells (endogenous enzyme)
T3 sequence (P08842 22-583): T1 sequence (P08842 22-583)
To be noted: at 0.1 nM; cited from earlier work.

Another series has as its system rats. To be noted: cited from earlier work.
The conditions of series [1]: cited from earlier work.
The target of the next series is T4, steroid sulphatase (Homo sapiens, UniProt P08842).
T4 sequence (P08842 22-583): T1 sequence (P08842 22-583)
Particulars: cited from earlier work.

Each structure is given as a SMILES string.

As a reminder, the IC50 is the concentration needed to halve the response being measured. As to `NS(=O)(=O)Oc1ccc(SCc2cccc(Cn3cncn3)c2)cc1Cl` [compound 1979], the half-maximal inhibitory concentration (IC50) on steroid sulphatase (STS) and at Aromatase was < 1000 nM each time.

Broadly, the melting point is the temperature, or range, at which the solid turns liquid. `CC(C)(C#N)c1cc(Cn2cncn2)cc(-c2ccc(OS(N)(=O)=O)c(Cl)c2)c1` [Compound 58, 3′-((1H-1,2,4-triazol-1-yl)methyl)-3-chloro-5′-(2-cyanopropan-2-yl)biphenyl-4-yl sulfamate]: the melting point fell in the range of 71 to 74 °C. Besides, the “JEG3-cells STS, % at single concentration” value on steroid sulphatase (STS) (@ 10 μM) came to 68.2 ± 1.6% @ 10 μM. Moreover, the 50% inhibitory concentration (IC50) against Aromatase is < 1000 nM.

On to `N#Cc1cc(Cn2cncn2)ccc1-c1ccc(OS(N)(=O)=O)cc1` [Compound 48, 4′-((1H-1,2,4-triazol-1-yl)methyl)-2′-cyanobiphenyl-4-yl sulfamate], for which the IC50 against steroid sulphatase (STS) and against Aromatase was < 1000 nM throughout.

For the compound `N#Cc1cc(Cn2cncn2)ccc1-c1ccc(OS(N)(=O)=O)c(Cl)c1` [Compound 50, 4′-((1H-1,2,4-triazol-1-yl)methyl)-3-chloro-2′-cyanobiphenyl-4-yl sulfamate], the IC50 against steroid sulphatase (STS) and against Aromatase was < 1000 nM each time.

For the compound `NS(=O)(=O)Oc1ccc(SCc2ccc(Cn3cncn3)cc2)cc1Cl` [compound 1980], the 50% inhibitory concentration (IC50) against steroid sulphatase (STS) and on Aromatase was < 1000 nM in each case.

On to `NS(=O)(=O)Oc1ccc(-c2cccc(Cn3cncn3)c2)cc1Cl` [compound 1854], for which the concentration for half-maximal inhibition (IC50) against steroid sulphatase (STS) and against Aromatase was < 1000 nM each time.

In the case of `NS(=O)(=O)Oc1ccc(-c2ccc(Cn3cncn3)cc2)cc1` [compound 1976], the IC50 at steroid sulphatase (STS) and at Aromatase was < 10000 nM in each case.

As for `CC12CCC3c4ccc(OS(N)(=O)=O)cc4CCC3C1CCC2=O` (stereo not drawn) [EMATE, oestrone-3-sulphamate], the “inhibition of E1-STS activity in intact MCF-7 cells” value at E1-STS is listed as “more than 99%”. The “oral uterotrophic activity in rats relative to estradiol” value in the series on rats (oral, rats, versus estradiol) is recorded as 100 times.

Turning to `NS(=O)(=O)Oc1ccc(-c2cccc(Cn3cncn3)c2)cc1` [compound 1455], the figures for the concentration for half-maximal inhibition (IC50) on steroid sulphatase (STS) and at Aromatase were < 10000 nM and < 1000 nM, respectively.

Turning to `N#Cc1ccc(Cn2cncn2)cc1-c1ccc(OS(N)(=O)=O)c(Cl)c1` [Compound 23, 5′-((1H-1,2,4-triazol-1-yl)methyl)-3-chloro-2′-cyanobiphenyl-4-yl sulfamate], on steroid sulphatase (STS), the IC50 was < 1000 nM.

Compound `N#Cc1ccc(-c2ccc(OS(N)(=O)=O)c(Cl)c2)cc1Cn1cncn1` [Compound 33, 3′-((1H-1,2,4-triazol-1-yl)methyl)-3-chloro-4′-cyanobiphenyl-4-yl sulfamate] returned a melting point of 155 to 158 °C. In addition, the IC50 against steroid sulphatase (STS) is < 1000 nM. Moreover, the IC50 against Aromatase is < 1000 nM.

`N#Cc1cc(Cn2cncn2)cc(-c2ccc(OS(N)(=O)=O)c(Cl)c2)c1` [Compound 40, 3′-((1H-1,2,4-triazol-1-yl)methyl)-3-chloro-5′-cyanobiphenyl-4-yl sulfamate]: the figures for the half-maximal inhibitory concentration (IC50) at steroid sulphatase (STS) and on Aromatase were < 10000 nM and < 1000 nM, respectively.

`C[C@]12CC[C@@H]3c4ccc(OS(=O)(=O)O)cc4CC[C@H]3[C@@H]1CCC2=O` [E1S, oestrone sulphate]: the half-life in blood in series [1] was 10 to 12 h.

With `COc1cc2c(cc1OS(N)(=O)=O)CC[C@@H]1[C@@H]2CC[C@]2(C)C(=O)CC[C@@H]12` [2-methoxyoestrone-3-O-sulphamate], at steroid sulphatase, the “potency as a steroid sulphatase inhibitor compared with EMATE” value is on record as “equipotent with EMATE”. Moreover, the oestrogenicity entry in the series with rats (rat, in vivo) is “devoid of oestrogenicity”.

Regarding `NS(=O)(=O)Oc1ccc(C#Cc2cccc(Cn3cncn3)c2)cc1Cl` [compound 2054], the IC50 against steroid sulphatase (STS) is < 1000 nM.

With `N#Cc1ccc(Cn2cncn2)cc1-c1ccc(OS(N)(=O)=O)cc1` [Compound 20, 5′-((1H-1,2,4-triazol-1-yl)methyl)-2′-cyanobiphenyl-4-yl sulfamate], the IC50 against steroid sulphatase (STS) and against Aromatase was < 1000 nM each time.

With `N#Cc1ccc(-c2ccc(OS(N)(=O)=O)cc2)cc1Cn1cncn1` [Compound 31, 3′-((1H-1,2,4-triazol-1-yl)methyl)-4′-cyanobiphenyl-4-yl sulfamate], the melting point is 179 to 180 °C. For the same compound, the IC50 at steroid sulphatase (STS) was < 1000 nM. In addition, the 50% inhibitory concentration (IC50) on Aromatase is < 1000 nM.

For the compound `NS(=O)(=O)Oc1cccc(-c2cccc(Cn3cncn3)c2)c1` [compound 1848], the results for the IC50 against steroid sulphatase (STS) and against Aromatase were < 10000 nM and < 1000 nM, respectively.
